This note sets out measurements from US9586907B2, “Isothiocyanate compounds, pharmaceutical compositions, and uses thereof” (priority 2006, dated 2017).

The test system of series [1] is human peritoneal macrophages infected with Mycobacterium tuberculosis H37Rv strain. Nature of the series: In vitro infection model, cytotoxicity. As to conditions: up to 1 μg/mL; Rifampicin control.
Series [2] relates to Enterobacter cloacii BK12315. Nature of the series: MIC, Enterobacter cloacii BK12315.
In series [3] the test system is Mycobacterium tuberculosis H37Rv strain. Nature of the series: In vitro infection model, bacterial growth inhibition in infected macrophages. The format is cell-based. As to conditions: M. tuberculosis H37Rv; up to 1 μg/mL; Rifampicin control. The source says: Rifampicin was used as a control for this experiment.
The nature of series [4]: In vivo tolerance in mice. As to conditions: highest dose, 50 mg/kg.
The test system of series [5] is virus (92TH594). In words: Viral proliferation in PBMC, p24 viral antigen. The note with it: PBMC. The series is classed as cell-based.
For series [6], the system named is Candida albicans 90030. In words: Anti-fungal MIC, Candida albicans 90030.
Series [7] has as its system Aspergillus fumigatus Rit 11. Nature of the series: Anti-fungal MIC, Aspergillus fumigatus Rit 11.
For series [8], the system named is Bacillus cereus. In words: Pre-incubation of compound in MHB medium, inhibitory activity against Bacillus cereus. The note with it: initial concentration equal to the MIC value; FIG. 5. The format is cell-based. As to the method:
Preincubation of Compound 37 in Culture Medium and Its Effect on Growth-Inhibitory Activity. Compound 37 was added to liquid Muller-Hinton Broth (MHB) medium in microtiter plate to final concentration 2 mg/ml and incubated for the periods of time indicated in FIG. 5 before addition to cultures of B. cereus. After incubation for 20 h at 37° C., bacterial growth was assessed by measuring of the turbidity at 600 nm.
ITC compounds can react with amine- and thiol-containing components of the culture media with the formation of corresponding thioureas and dithiocarbamates. The effect of pre-incubation of Compound 37 in MHB medium on its inhibitory activity against Bacillus cereus was determined at an initial concentration equal to the MIC value. While no growth of the bacteria occurs upon immediate addition of the inhibitor, progressive growth is observed as a function of pre-incubation time.

The subject of series [9] is Candida dlabrata 250^mdr. In words: Anti-fungal MIC, Candida dlabrata 250^mdr.
For series [10], the system named is Staphylococcus aureus. In words: Bactericidal/bacteriostatic activity (CFU), Staphylococcus aureus. The format is cell-based. As to conditions: 1 to 2 hours, FIG. 2B.
Series [11] relates to Aspergillus fumigatus Rit 1. In words: Anti-fungal MIC, Aspergillus fumigatus Rit 1.
Series [12] has as its system Bacillus cereus. In words: Bactericidal/bacteriostatic activity (CFU), Bacillus cereus. The format is cell-based.
Series [13] relates to Aspergillus fumigatus Rit 21. In words: Anti-fungal MIC, Aspergillus fumigatus Rit 21.
The test system of series [14] is Candida crusei 6258^mdr. In words: microbe, parasite or virus in culture. As to conditions: read-out: Anti-Fungal Activity (MIC).
Series [15] concerns Cryptococcus neoformans CNH99. Nature of the series: Anti-fungal MIC, Cryptococcus neoformans CNH99.
For series [16], the system named is human acute monocytic leukemia cells (THP1 cells). In words: Growth of THP1 cells, MTT metabolic assay. The series is classed as cell-based. The note with it: Homo sapiens, THP-1, 24 h, read-out: drop in cell viability. As to the method: THP1 cells were either mock-treated (DMSO vehicle alone), or treated with increasing doses of new compounds 37 and 45, from 0 to 32 μg/mL. Cells were incubated in the presence of compound for 24 hours, and subsequently were assayed for total cell viability using an MTT, metabolic assay.
(In general: Formazan colour is commonly taken as a measure of viable cells.)

The test system of series [17] is Candida albicans 90028. In words: Anti-fungal MIC, Candida albicans 90028.
For series [18], the system named is Candida parapsilosis 22019. Nature of the series: Anti-fungal MIC, Candida parapsilosis 22019.
Series [19] relates to Candida albicans 5108^mdr. Nature of the series: Anti-fungal MIC, Candida albicans 5108^mdr.
Series [20] concerns Candida crusei 6258^mdr.
The mark [21] stands for this setting: Enterobacter cloacii BK12315, Gram −, 24 hours of incubation.
[22] abbreviates: compound 2.5 μg/ml, added to the cells after viral infection.
[23] abbreviates: compound 2.5 μg/ml, added to the cells before viral infection.
[24] abbreviates: compound 10 μg/ml, added to the cells after viral infection.
[25] abbreviates: compound 10 μg/ml, added to the cells before viral infection.

≈ marks a conversion by molar mass, not a printed value.

`S=C=NCCCCCCCCN=C=S` [Compound 42, S═C═N—(CH2)8—N═C═S]: in [1], the “cytotoxicity in infected macrophages” value is on record as “exhibited more toxicity”. The same compound came in with an MIC in series [2] (setting [21]) of 64 µg/mL (≈ 280 µM). Further, the “growth inhibitory activity in infected macrophages” value in series [3] is given as “gave similar results”. Moreover, the “toxicity in treated mice” value in series [4] was “no toxicity was observed”. The P24 values in series [5] (setting [22]) was 630 pg/mL; in [5] (setting [23]) it was 220 pg/mL; in series [5] (setting [24]), 700 pg/mL; in [5] (setting [25]), 0 pg/mL.
`S=C=NCc1ccc(CN=C=S)cc1` [Compound 37]: the MIC was 0.5 µg/mL (≈ 2.27 µM) in series [6] (Candida albicans, 90030, read-out: Anti-Fungal Activity (MIC)); 0.5 µg/mL (≈ 2.27 µM) in series [7] (Aspergillus fumigatus, RIT11, read-out: Anti-Fungal Activity (MIC)); 0.125 µg/mL (≈ 0.567 µM) in series [9] (Candida, 48 h, read-out: Anti-Fungal Activity (MIC)); more than 64 µg/mL in [2] (Enterobacter, BK12315, 24 h); 0.5 µg/mL (≈ 2.27 µM) in [11] (Aspergillus fumigatus, RIT1, read-out: Anti-Fungal Activity (MIC)); 0.5 µg/mL (≈ 2.27 µM) in [13] (Aspergillus fumigatus, RIT21, read-out: Anti-Fungal Activity (MIC)). The MIC was 0.5 µg/mL (≈ 2.27 µM) in [14]; less than 1 µg/mL in [15] (Cryptococcus neoformans, CNH99, read-out: Anti-Fungal Activity (MIC)); 0.5 µg/mL (≈ 2.27 µM) in series [17] (Candida albicans, 90028, read-out: Anti-Fungal Activity (MIC)); 0.5 µg/mL (≈ 2.27 µM) in [18] (22019, read-out: Anti-Fungal Activity (MIC)); 0.5 µg/mL (≈ 2.27 µM) in series [19] (Candida albicans, read-out: Anti-Fungal Activity (MIC)). Also, the “cytotoxicity in infected macrophages” value in series [1] is “exhibited more toxicity”. For the same compound, the “effect of pre-incubation in MHB medium on inhibitory activity” value in [8] was “decrease of inhibition potency”. Also, in series [3], the “growth inhibitory activity in infected macrophages” value is “gave similar results”. The “effect on Staphylococcus aureus cultures” value in [10] is listed as “bacteriostatic effect”. The “bacterial growth at 20 h” value in [12] (Compound at 4 μg/ml, data not shown) was “no bacterial growth was detected”. Also, the “cell viability of Bacillus cereus (CFU)” value in series [12] (incubation 1 to 2 hours, FIG. 2A) is recorded as “dramatic decrease in cell viability”. Also, the “toxicity in treated mice” value in [4] is “no toxicity was observed”. In addition, the cytotoxicity at 8 µg/mL in [16] is approximately 25%. Also, the P24 values in [5] (setting [22]) came out at 760 pg/mL; in series [5] (setting [23]) it was 210 pg/mL; in series [5] (setting [24]), 340 pg/mL; in [5] (setting [25]), 0 pg/mL.
Regarding `S=C=NCCCCCCCN=C=S` [Compound 41, S═C═N—(CH2)7—N═C═S], the “Anti-Fungal Activity (MIC)” value is less than 1 µg/mL in series [6] (Candida albicans 90030); 4 µg/mL in [7] (Aspergillus fumigatus Rit 11); less than 1 µg/mL in series [9] (Candida dlabrata 250^mdr); 4 µg/mL in [11] (Aspergillus fumigatus Rit 1); 4 µg/mL in series [13] (Aspergillus fumigatus Rit 21); 2 µg/mL in series [20]. For the same compound, the “Anti-Fungal Activity (MIC)” value was less than 1 µg/mL in series [15] (Cryptococcus neoformans CNH99), 8 µg/mL in series [17] (Candida albicans 90028), 2 µg/mL in series [18] (Candida parapsilosis 22019) and 8 µg/mL in [19] (Candida albicans 5108^mdr). This compound also showed an MIC in [2] (setting [21]) of more than 64 µg/mL.
